Key:
P. leiognathi = experiment: ToxScreen-II toxicity assay (bacterial luminescence) with stored bacterial suspension; format: cell-based; conditions: light level after 30 minutes at 27° C.
Method: In order to determine how long a bacterial suspension stored in a solution according to an exemplary embodiment of the invention could be useful in a toxicity assay, a toxicity assay (ToxScreen-II, CheckLight Ltd, Qiryat Tivon, Israel) was conducted repeatedly over time.
In the assay, 0.01 mL aliquots were drawn from the bacterial suspension (P. leiognathi) in the medium at 4 time points during 30 days and incubated with chemical toxicants in assay buffer diluted in mineral water. Light level was determined after 30 minutes at 27° C.

[1] = test system: luminescent bacteria (e.g. Photobacterium leiognathi, Vibrio fischeri, Vibrio harveyi); experiment: titration of medium components: luminescence during long term storage at refrigeration temperatures; format: cell-based; conditions: for range I: concentrations that provided a marked improvement over negative control / range II: concentrations that produced no negative effect relative to negative control: based on results of examples 2 through 9; for effect of antibiotic on luminescence during long term storage: antibiotic at 15 mg/L in storage solution; for concentration that slowed the reduction in luminescence better than other tested concentrations: storage at -2 to +4° C. over several weeks, other components constant as in Table 1, pH 7.2
Method: In order to identify storage conditions suitable for a long term medium for a suspension of luminescent bacteria (e.g. Photobacterium leiognathi, Vibrio fischeri, Vibrio harveyi) different concentrations of monovalent salts, sugars, sources of divalent cations, protein mixtures, albumins and alcohols were tested.
Each of the medium components (including pH) was tested separately while all other components were kept at a constant concentration as indicated in Table 1. For titration of other components pH was held constant at 7.2. The effect on bacterial luminescence of each component at each tested concentration (or pH value) was determined over a period of several weeks.
In order to perform the titration of the medium components, a bacterial culture was spread on LA plates at about 300 colonies per plate after over night growth. Colonies were collected from plates with ASW and centrifuged (10000 g, 10 minutes, 4° C.). Harvested bacteria were resuspended in the different solutions to form experimental bacterial suspensions.
Experimental bacterial suspensions were stored at −2° C.-+4° C. Each week an aliquot of each experimental bacterial suspension was drawn and diluted in artificial seawater (ASW: 0.5M NaCl, 50 mM MgSO47H2O, 10 mM CaCl22H2O, 10 mM KCl)) supplemented with 50 ppm yeast extract/glucose and incubated at 26° C.-28° C. Light level was recorded after 30 minutes.

[2] = test system: E. coli harboring the luminescence system of V. fischeri; conditions: titration as in Example 6; data not shown
Method: In order to determine the effect of monovalent salts on luminescence during long term storage at refrigeration temperatures, NaCl was added to medium at concentrations of 0.1, 0.5, 2.0, 3.0 and 4.5%. […] Assay of the effect of NaCl was as described in Example 1.

Q: How did the “Sensitivity of P. leiognathi to various toxicants” value (“Sensitivity of P. leiognathi” for short) (P. leiognathi; Day 1 of storage) turn out when `[Cl][Cd][Cl]` [CdCl2] was run?
A: Its value is 0.2 mg/L.

Q: What about the “Sensitivity of P. leiognathi” value (P. leiognathi; Day 7 of storage) of the same molecule?
A: The value was 0.25 mg/L.

Q: And the “Sensitivity of P. leiognathi” value (P. leiognathi; Day 18 of storage)?
A: The value was 0.3 mg/L.

Q: What about the “Sensitivity of P. leiognathi” value (P. leiognathi; Day 30 of storage) of the same molecule?
A: The value was 0.4 mg/L.

Q: How did the “Sensitivity of P. leiognathi” value (P. leiognathi; Day 1 of storage) turn out when `Clc1ccc(C(c2ccc(Cl)cc2)C(Cl)(Cl)Cl)cc1` [DDT] was run?
A: Its value is 0.007 mg/L.

Q: And the “Sensitivity of P. leiognathi” value (P. leiognathi; Day 7 of storage)?
A: Its value is 0.006 mg/L.

Q: And the “Sensitivity of P. leiognathi” value (P. leiognathi; Day 18 of storage)?
A: The value was 0.004 mg/L.

Q: What about the “Sensitivity of P. leiognathi” value (P. leiognathi; Day 30 of storage) of the same molecule?
A: Its value is 0.006 mg/L.

Q: For `[K+].[K+].[O]=[Cr](=[O])([O-])[O][Cr](=[O])(=[O])[O-]` [K2Cr2O7], which “Sensitivity of P. leiognathi” value (P. leiognathi; Day 1 of storage) is on record?
A: The value was 0.5 mg/L.

Q: What about the “Sensitivity of P. leiognathi” value (P. leiognathi; Day 7 of storage) of the same molecule?
A: The value was 0.7 mg/L.

Q: What about the “Sensitivity of P. leiognathi” value (P. leiognathi; Day 18 of storage) of the same molecule?
A: Its value is 0.5 mg/L.

Q: And the “Sensitivity of P. leiognathi” value (P. leiognathi; Day 30 of storage)?
A: Its value is 0.6 mg/L.

Q: What does the source list for `[Cl-].[Na+]` [NaCl]?
A: range I: concentrations that provided a marked improvement over negative control [1]: 2.0-3.0%; range II: concentrations that produced no negative effect relative to negative control [1]: 1.0-3.0%; salt concentration determined to be useful (preserving luminescence) [2]: 0.8-0.85%

Q: How did the “Sensitivity of P. leiognathi” value (P. leiognathi; Day 1 of storage) turn out when `[Cl][Pb][Cl]` [PbCl2] was run?
A: The value was 2 mg/L.

Q: What about the “Sensitivity of P. leiognathi” value (P. leiognathi; Day 7 of storage) of the same molecule?
A: Its value is 2.5 mg/L.

Q: And the “Sensitivity of P. leiognathi” value (P. leiognathi; Day 18 of storage)?
A: The value was 3 mg/L.

Q: What about the “Sensitivity of P. leiognathi” value (P. leiognathi; Day 30 of storage) of the same molecule?
A: The value was 2.5 mg/L.

Q: How did the “effect of antibiotic on luminescence during long term storage” value [1] turn out when `CC1(C)S[C@@H]2[C@H](NC(=O)[C@H](N)c3ccccc3)C(=O)N2[C@H]1C(=O)O` [ampicillin] was run?
A: Its value is “slowed the reduction in luminescence better than other tested antibiotics”.

Q: How did the “effect of antibiotic on luminescence during long term storage” value [1] turn out when `O=C(N[C@H](CO)[C@H](O)c1ccc([N+](=O)[O-])cc1)C(Cl)Cl` [chloramphenicol] was run?
A: The value was “slowed the reduction in luminescence better than other tested antibiotics”.

Q: Which results are given for `CCO` [ethanol]?
A: range I: concentrations that provided a marked improvement over negative control [1]: 1.0-3.5%; range II: concentrations that produced no negative effect relative to negative control [1]: 0.1-3.5%; concentration that slowed the reduction in luminescence better than other tested concentrations [1]: ≥ 1.5%

Q: With `O[C@H]1[C@H](O)[C@@H](O)[C@H](O)[C@@H](O)[C@H]1O` [inositol] as the molecule, how does the “range I: concentrations that provided a marked improvement over negative control” value [1] read?
A: The value was 5.0-7.0%.

Q: What about the “range II: concentrations that produced no negative effect relative to negative control” value [1] of the same molecule?
A: Its value is 0.5-7.0%.

Q: And the “concentration that slowed the reduction in luminescence better than other tested concentrations” value [1]?
A: The value was 5%.

Q: What does the source list for `[Cl-].[Cl-].[Mg+2]` [magnesium, MgCl2]?
A: range I: concentrations that provided a marked improvement over negative control [1]: 1.0 to 200 mM; range II: concentrations that produced no negative effect relative to negative control [1]: 0.0 to 300 mM; concentration that slowed the reduction in luminescence better than other tested concentrations [1]: 200 mM

Q: How did the “range II: concentrations that produced no negative effect relative to negative control” value [1] turn out when Bovine serum albumin [BSA] was run?
A: Its value is 0.02-1.0%.

Source: patent US20100190237A1, “COMPOSITIONS AND METHODS FOR STORAGE OF BACTERIAL SUSPENSIONS” (priority 2007, published 2010)
